Measurements reported in ChEMBL document CHEMBL1201862, “PubChem BioAssay data set” (2004).
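48-hour exposure; five concentrations; linearly interpolated endpoints. At the GI50, growth is halved.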 Calls of active or inactive are those of the source. Rule as the data show it: active = GI50 up to about 1.1 µM and inactive = higher. Non-standard residues stand in square brackets, D forms with d. Residues, ends and D or L forms follow the SMILES beside them. *: point of attachment. Benzoyl(4-OMe) = COc1ccc(C(=O)*)cc1; 2Thi = N[CH](Cc1cccs1)C(=O)O

Assays:
Experiment in all cases: NCI-60 cell line screen, 48 h
Malme-3M = system: Malme-3M
HOP-62 = system: HOP-62
UO-31 = system: UO-31
SK-MEL-5 = system: SK-MEL-5
IGROV-1 = system: IGROV-1
MOLT-4 = system: MOLT-4
SN12C = system: SN12C
OVCAR-8 = system: OVCAR-8
ACHN = system: ACHN
UACC-257 = system: UACC-257
HT-29 = system: HT-29
Hs-578T = system: Hs-578T
A498 = system: A498
RXF 393 = system: RXF 393
PC-3 = system: PC-3
CCRF-CEM = system: CCRF-CEM
SNB-19 = system: SNB-19
NCI-H522 = system: NCI-H522
SK-MEL-2 = system: SK-MEL-2
LOX IMVI = system: LOX IMVI

COc1cc(COC(=O)N2CC=CC2C(=O)O)c([N+](=O)[O-])cc1OC (centres undefined)
GI50 (Malme-3M): > 100 µM (inactive) | GI50 (HOP-62): > 100 µM (inactive) | GI50 (UO-31): > 100 µM (inactive) | GI50 (SK-MEL-5): > 100 µM (inactive) | GI50 (IGROV-1): > 100 µM (inactive) | GI50 (MOLT-4): > 100 µM (inactive) | GI50 (SN12C): > 100 µM (inactive) | GI50 (OVCAR-8): > 100 µM (inactive) | GI50 (ACHN): > 100 µM (inactive) | GI50 (UACC-257): > 100 µM (inactive) | GI50 (HT-29): > 100 µM (inactive) | GI50 (Hs-578T): > 100 µM (inactive) | GI50 (A498): > 100 µM (inactive) | GI50 (RXF 393): > 100 µM (inactive) | GI50 (PC-3): > 100 µM (inactive) | GI50 (CCRF-CEM): > 100 µM (inactive) | GI50 (SNB-19): > 100 µM (inactive)

COc1cc2c(=O)cnoc2cc1O
GI50 (Malme-3M): > 100 µM (inactive) | GI50 (UO-31): > 100 µM (inactive) | GI50 (SK-MEL-5): > 100 µM (inactive) | GI50 (IGROV-1): > 100 µM (inactive) | GI50 (MOLT-4): > 100 µM (inactive) | GI50 (SN12C): > 100 µM (inactive) | GI50 (OVCAR-8): > 100 µM (inactive) | GI50 (ACHN): > 100 µM (inactive) | GI50 (UACC-257): > 100 µM (inactive) | GI50 (HT-29): > 100 µM (inactive) | GI50 (Hs-578T): > 100 µM (inactive) | GI50 (A498): 39.5 µM (inactive) | GI50 (RXF 393): > 100 µM (inactive) | GI50 (PC-3): > 100 µM (inactive) | GI50 (CCRF-CEM): > 100 µM (inactive) | GI50 (NCI-H522): > 100 µM (inactive) | GI50 (SNB-19): > 100 µM (inactive) | GI50 (SK-MEL-2): > 100 µM (inactive)

COC(=O)C1CCC(=O)N1C(c1ccc(OC)cc1)c1ccc(OC)cc1 (centres undefined)
GI50 (LOX IMVI): > 100 µM (inactive) | GI50 (Malme-3M): > 100 µM (inactive) | GI50 (HOP-62): > 100 µM (inactive) | GI50 (UO-31): > 100 µM (inactive) | GI50 (SK-MEL-5): > 100 µM (inactive) | GI50 (IGROV-1): > 100 µM (inactive) | GI50 (MOLT-4): > 100 µM (inactive) | GI50 (SN12C): > 100 µM (inactive) | GI50 (OVCAR-8): > 100 µM (inactive) | GI50 (ACHN): > 100 µM (inactive) | GI50 (UACC-257): > 100 µM (inactive) | GI50 (HT-29): > 100 µM (inactive) | GI50 (Hs-578T): > 100 µM (inactive) | GI50 (A498): > 100 µM (inactive) | GI50 (PC-3): > 100 µM (inactive) | GI50 (CCRF-CEM): > 100 µM (inactive) | GI50 (NCI-H522): > 100 µM (inactive) | GI50 (SNB-19): > 100 µM (inactive) | GI50 (SK-MEL-2): > 100 µM (inactive)

N#Cc1nc(C(=O)c2ccccc2)oc1N
GI50 (LOX IMVI): > 100 µM (inactive) | GI50 (HOP-62): > 100 µM (inactive) | GI50 (SK-MEL-5): > 100 µM (inactive) | GI50 (IGROV-1): 64.9 µM (inactive) | GI50 (MOLT-4): > 100 µM (inactive) | GI50 (SN12C): > 100 µM (inactive) | GI50 (OVCAR-8): > 100 µM (inactive) | GI50 (ACHN): > 100 µM (inactive) | GI50 (UACC-257): > 100 µM (inactive) | GI50 (HT-29): > 100 µM (inactive) | GI50 (Hs-578T): 20.9 µM (inactive) | GI50 (A498): > 100 µM (inactive) | GI50 (PC-3): > 100 µM (inactive) | GI50 (CCRF-CEM): > 100 µM (inactive) | GI50 (SNB-19): > 100 µM (inactive) | GI50 (SK-MEL-2): > 100 µM (inactive)

CCC(C)C(NC(=O)C(Cc1cccs1)NC(=O)C(CC(C)C)NC(=O)C(CC(C)C)NC(=O)C(CCCCN)NC(=O)C(CCCNC(=N)N)NC(=O)c1ccc(OC)cc1)C(=O)NC(CC(C)C)C(N)=O (centres undefined) ({Benzoyl(4-OMe)}-RKLL[2Thi]IL-NH2; configuration not given here)
GI50 (LOX IMVI): > 100 µM (inactive) | GI50 (Malme-3M): > 100 µM (inactive) | GI50 (HOP-62): > 100 µM (inactive) | GI50 (UO-31): > 100 µM (inactive) | GI50 (SK-MEL-5): > 100 µM (inactive) | GI50 (MOLT-4): > 100 µM (inactive) | GI50 (SN12C): > 100 µM (inactive) | GI50 (OVCAR-8): > 100 µM (inactive) | GI50 (ACHN): > 100 µM (inactive) | GI50 (UACC-257): > 100 µM (inactive) | GI50 (HT-29): > 100 µM (inactive) | GI50 (Hs-578T): > 100 µM (inactive) | GI50 (A498): > 100 µM (inactive) | GI50 (RXF 393): > 100 µM (inactive) | GI50 (PC-3): > 100 µM (inactive) | GI50 (CCRF-CEM): 78.2 µM (inactive) | GI50 (NCI-H522): > 100 µM (inactive) | GI50 (SNB-19): > 100 µM (inactive)

C#CC1=CC(=O)C(OC)=CC1=O
GI50 (LOX IMVI): 17.6 µM (inactive) | GI50 (Malme-3M): 25.9 µM (inactive) | GI50 (HOP-62): 16.5 µM (inactive) | GI50 (UO-31): 4.68 µM (inactive) | GI50 (SK-MEL-5): 16.2 µM (inactive) | GI50 (MOLT-4): 3.25 µM (inactive) | GI50 (SN12C): 17.6 µM (inactive) | GI50 (ACHN): 3.44 µM (inactive) | GI50 (UACC-257): 41.6 µM (inactive) | GI50 (HT-29): 23.3 µM (inactive) | GI50 (Hs-578T): 95.1 µM (inactive) | GI50 (A498): > 100 µM (inactive) | GI50 (RXF 393): 15.2 µM (inactive) | GI50 (PC-3): 53.2 µM (inactive) | GI50 (CCRF-CEM): 7.36 µM (inactive) | GI50 (NCI-H522): 1.77 µM (inactive) | GI50 (SNB-19): > 100 µM (inactive) | GI50 (SK-MEL-2): 15.7 µM (inactive)

Cc1cc(NC(=O)NC(=O)c2ccccc2[N+](=O)[O-])ccc1Oc1ncc(Cl)cn1
GI50 (LOX IMVI): 0.133 µM (active) | GI50 (Malme-3M): 0.0231 µM (active) | GI50 (HOP-62): 0.0581 µM (active) | GI50 (UO-31): 0.0889 µM (active) | GI50 (SK-MEL-5): 0.0362 µM (active) | GI50 (IGROV-1): 0.51 µM (active) | GI50 (MOLT-4): 0.0702 µM (active) | GI50 (SN12C): 0.492 µM (active) | GI50 (OVCAR-8): 0.303 µM (active) | GI50 (ACHN): 1.88 µM (inactive) | GI50 (UACC-257): 0.0431 µM (active) | GI50 (HT-29): 0.0488 µM (active) | GI50 (Hs-578T): 0.0257 µM (active) | GI50 (A498): 0.0604 µM (active) | GI50 (RXF 393): 0.0447 µM (active) | GI50 (PC-3): 0.0336 µM (active) | GI50 (CCRF-CEM): 0.0552 µM (active) | GI50 (NCI-H522): 0.0402 µM (active) | GI50 (SNB-19): 0.212 µM (active)

COC1OC(C)C(NC(=O)OCC(Cl)(Cl)Cl)C2OC(C)(C)OC12 (centres undefined)
GI50 (LOX IMVI): > 10 µM (inactive) | GI50 (Malme-3M): > 100 µM (inactive) | GI50 (HOP-62): > 100 µM (inactive) | GI50 (UO-31): > 100 µM (inactive) | GI50 (SK-MEL-5): > 100 µM (inactive) | GI50 (IGROV-1): > 100 µM (inactive) | GI50 (MOLT-4): > 100 µM (inactive) | GI50 (SN12C): > 100 µM (inactive) | GI50 (OVCAR-8): > 100 µM (inactive) | GI50 (ACHN): > 100 µM (inactive) | GI50 (UACC-257): > 100 µM (inactive) | GI50 (HT-29): > 100 µM (inactive) | GI50 (Hs-578T): > 100 µM (inactive) | GI50 (A498): > 100 µM (inactive) | GI50 (RXF 393): > 100 µM (inactive) | GI50 (PC-3): > 100 µM (inactive) | GI50 (CCRF-CEM): > 100 µM (inactive) | GI50 (NCI-H522): > 100 µM (inactive) | GI50 (SNB-19): > 100 µM (inactive)
